Experimental findings from article PMC7529893, “Structural basis for substrate recognition and chemical inhibition of oncogenic MAGE ubiquitin ligases” (Nature Communications, 2020) are described below.

Each structure is given as a SMILES string.

The target of the assay is T1, MAGE-A11:PCF11 interaction (GST-MAGE-A11 and FAM-PCF11_4) (Homo sapiens, UniProt P43364).
T1 construct: GST-MAGE-A11 MHD (human MAGE-A11 MHD amino acid 218-429); made in house; host or cells: E. coli BL21(DE3)
T1 sequence (P43364 218-429): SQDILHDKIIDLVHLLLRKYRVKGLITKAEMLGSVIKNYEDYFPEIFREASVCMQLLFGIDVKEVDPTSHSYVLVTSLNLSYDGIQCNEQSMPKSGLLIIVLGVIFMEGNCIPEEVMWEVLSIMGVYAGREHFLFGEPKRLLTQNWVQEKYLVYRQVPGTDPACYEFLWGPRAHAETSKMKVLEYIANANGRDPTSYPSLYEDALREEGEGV
Kind of assay: TR-FRET primary / single point screen at 15 µM. The assay is classed as binding. An outline of the steps: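 Single-point screen at 15 µM final compound in 50 mM Tris pH 7.5, 20 mM MgCl2, 0.1 mg/ml BSA, 1 mM DTT, with 200 nM FAM-PCF11_4, 5 nM Tb-anti-GST and 5 nM GST-MAGE-A11. After 90 min at room temperature, the 520/490 nm TR-FRET ratio (340 nm excitation) gave %Inhibition against no-MAGE-A11 and DMSO controls.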

The mark [1] stands for this setting: single point TR-FRET screening of quinoline compounds against MAGE-A11:PCF11, 15 µM.
Setting [2] is: single point TR-FRET screening of 797 quinoline compounds against MAGE-A11:PCF11.

Turning to `CCCN(CCCNc1ccnc2cc(Cl)ccc12)Cc1c(C)cc(C)cc1C` [SJ000522749], under setting [1], the “percent inhibition (TR-FRET)” value came to 35.4339. For `CCOc1ccc2ncc(S(=O)(=O)c3ccc(C)cc3)c(N3CCN(c4ccccc4F)CC3)c2c1` [SJ000117077], the “percent inhibition (TR-FRET)” value under setting [2] is listed as 5.159. Turning to `CCc1ccc(S(=O)(=O)c2cnc3ccccc3c2N2CCN(c3ccccc3OC)CC2)cc1` [SJ000117069], the “percent inhibition (TR-FRET)” value under setting [2] is reported as -47.4423. On the same count and under the same terms, then `COc1ccc2nc3cc(Cl)ccc3c(NCCCNCc3nccn3C)c2c1` [SJ000521006], with -279.905. Turning to `CCCN(CCCNc1c2ccc(Cl)cc2nc2ccc(OC)cc12)Cc1cc(OC(F)(F)F)ccc1OC` [SJ000522984], the “percent inhibition (TR-FRET)” value under setting [1] is -36.7058.

As for `Fc1ccccc1CN1CCC(Nc2ccnc3cc(Cl)ccc23)CC1` [SJ000523091], the “percent inhibition (TR-FRET)” value under setting [2] is -0.9977. `Clc1ccc2c(NCCCN(Cc3ccccc3)Cc3ccoc3)ccnc2c1` [SJ000361170]: under setting [1], the “percent inhibition (TR-FRET)” value was determined as 12.8437. Take `Clc1ccc2c(NCCCN(Cc3ccccc3)CC3CC3)ccnc2c1` [SJ000357483]: under setting [1], the “percent inhibition (TR-FRET)” value came out at 21.0583. Turning to `Clc1ccc2c(NCCCCN(CCOCc3ccccc3)Cc3ccccc3)ccnc2c1` [SJ000357543], under setting [2], the “percent inhibition (TR-FRET)” value is -15.9162.

For `CCOC(=O)c1cnc2ccc(Br)cc2c1NCCN1CCOCC1` [SJ000031339], the “percent inhibition (TR-FRET)” value under setting [2] is reported as -47.2425.

As for `CCCN(CCCNc1ccnc2cc(C(F)(F)F)ccc12)Cc1ncc[nH]1` [SJ000575181], the “percent inhibition (TR-FRET)” value under setting [1] was 9.345.

`CCCN(CCCNc1ccnc2cc(Cl)ccc12)Cc1c[nH]c(C)n1` [SJ000522990]: under setting [1], the “percent inhibition (TR-FRET)” value amounted to 4.828. As for `COc1ccc2ncc(S(=O)(=O)c3ccc(Cl)cc3)c(N3CCN(C)CC3)c2c1` [SJ000083952], the “percent inhibition (TR-FRET)” value under setting [2] is given as -3.658.

Turning to `FC(F)(F)c1ccc(-c2ccc3c(NCCCNCc4ccco4)ccnc3c2)cc1` [SJ000311278], under setting [1], the “percent inhibition (TR-FRET)” value was determined as 56.2051. Same read-out and setting: the figure for `Clc1ccc(CN(CCCNc2ccnc3cc(Cl)ccc23)Cc2ccccc2)c(Cl)c1` [SJ000361184] is 25.4969; for `CCCN(CCCNc1ccnc2cc(Cl)ccc12)Cc1ccccc1N` [SJ000522747] it is 15.4273. For `CCCN(CCCNc1ccnc2cc(Cl)ccc12)Cc1ccc(-c2ccccc2[N+](=O)[O-])o1` [SJ000523044], under setting [1], the “percent inhibition (TR-FRET)” value stood at 9.266. As for `COc1ccc2nc3cc(Cl)ccc3c(NCCCNCC3CC3)c2c1` [SJ000361087], the “percent inhibition (TR-FRET)” value under setting [2] is on record as -502.358.

For the molecule `Cc1ccc(C)c(CN(CCCNc2ccnc3cc(Cl)ccc23)Cc2ccccc2)c1` [SJ000361187], under setting [1], the “percent inhibition (TR-FRET)” value stood at 20.217. With `CCCCCN1CCC(Nc2ccnc3cc(Cl)ccc23)CC1` [SJ000523088], under setting [2], the “percent inhibition (TR-FRET)” value is given as 12.1652. Still for that read-out and setting: then `O=[N+]([O-])c1ccc(CN(CCCCNc2ccnc3cc(Cl)ccc23)Cc2ccccc2)cc1` [SJ000361202], with 15.2459. With `Clc1ccc2c(NCCCNCc3ccoc3)ccnc2c1` [SJ000520913], under setting [1], the “percent inhibition (TR-FRET)” value was -11.15.

Regarding `FC(F)(F)c1ccc2c(NCCCNCc3ccc[nH]3)ccnc2c1` [SJ000361105], the “percent inhibition (TR-FRET)” value under setting [1] came to 41.6887. As to `O=C(O)CCCNC(=O)CNc1c2ccccc2nc2ccccc12` [SJ000016432], the “percent inhibition (TR-FRET)” value under setting [2] is listed as 9.598. Consider `CCCN(CCCNc1ccnc2cc(C(F)(F)F)ccc12)Cc1cccs1` [SJ000361253], for which the “percent inhibition (TR-FRET)” value under setting [1] came out at 19.5346.

On to `CCCN(CCCNc1ccnc2cc(C(F)(F)F)ccc12)Cc1cc(F)ccc1OC` [SJ000520475], for which, under setting [1], the “percent inhibition (TR-FRET)” value amounted to 15.746. The same measure, in the same setting: then `CCCN(CCCNc1ccnc2cc(Cl)ccc12)Cc1nccn1C` [SJ000523002], with 6.351. Consider `CCOC(=O)c1cnc2c(C(=O)OC)cccc2c1NCCN1CCOCC1` [SJ000184799], for which, under setting [2], the “percent inhibition (TR-FRET)” value turned out to be 4.043. For `Cc1ccc2ncc(S(=O)(=O)c3ccccc3)c(N3CCN(c4ccccc4F)CC3)c2c1` [SJ000315092], the “percent inhibition (TR-FRET)” value under setting [2] was -33.4837. Consider `CCCN(CCCNc1c2ccc(Cl)cc2nc2ccc(OC)cc12)Cc1cccc(C(F)(F)F)c1` [SJ000522986], for which, under setting [1], the “percent inhibition (TR-FRET)” value is 16.1546.

In the case of `CCCN(CCCNc1ccnc2cc(Cl)ccc12)Cc1ccsc1` [SJ000522744], under setting [1], the “percent inhibition (TR-FRET)” value worked out at 7.824. For the molecule `O=C(C[C@H]1CC[C@]2(CC1)OO[C@]1(O2)C2CC3CC(C2)CC1C3)NCCNc1ccnc2cc(Cl)ccc12` [SJ000578361], under setting [2], the “percent inhibition (TR-FRET)” value turned out to be 28.0142. Consider `COc1ccc(N2CCN(c3c(S(=O)(=O)c4ccccc4)cnc4ccc(Cl)cc34)CC2)cc1` [SJ000083983], for which, under setting [2], the “percent inhibition (TR-FRET)” value is given as -17.9415. On the same count and under the same terms, then `FC(F)(F)Oc1ccc(CN(CCCCNc2ccnc3cc(Cl)ccc23)Cc2ccccc2)cc1` [SJ000520451], with 39.8725; and `CCOC(=O)c1cnc2c(Cl)cc(Cl)cc2c1NCCN1CCOCC1` [SJ000175864], with -13.059. Still for that read-out and setting: the figure for `Oc1ccccc1CN(CCCCNc1ccnc2cc(Cl)ccc12)Cc1ccccc1` [SJ000312697] is 24.8344; for `Clc1ccc2c(NCCCCN(Cc3ccccc3)Cc3csc4ccccc34)ccnc2c1` [SJ000520446] it is 33.9765; for `CCOc1ccc2ncc(S(=O)(=O)c3ccccc3)c(N3CCN(CC)CC3)c2c1` [SJ000083959] it is 4.534. `Clc1ccc2c(NCCCNCc3cc4ccccc4s3)ccnc2c1` [SJ000521032]: under setting [1], the “percent inhibition (TR-FRET)” value was 30.1342. Consider `FC(F)(F)c1cc(-c2ccc3c(NCCCNCc4ccco4)ccnc3c2)cc(C(F)(F)F)c1` [SJ000311270], for which the “percent inhibition (TR-FRET)” value under setting [1] is listed as 59.7059. On to `COc1ccc(C(F)(F)F)cc1CN(CCCCNc1ccnc2cc(Cl)ccc12)Cc1ccccc1` [SJ000520444], for which the “percent inhibition (TR-FRET)” value under setting [2] is listed as 31.8155. On to `COc1ccc(OC(F)(F)F)cc1CN(CCCNc1ccnc2cc(Cl)ccc12)Cc1ccccc1` [SJ000520452], for which the “percent inhibition (TR-FRET)” value under setting [1] is reported as 20.4443. For the molecule `CCCN(CCCNc1ccnc2cc(C(F)(F)F)ccc12)Cc1ccc(OC)c(F)c1` [SJ000521013], the “percent inhibition (TR-FRET)” value under setting [1] turned out to be 21.7574.

As to `Cc1cc(NC(=O)CN[C@H]2CCN(Cc3cccc(F)c3)C2)c2ccccc2n1` [SJ000832581], the “percent inhibition (TR-FRET)” value under setting [2] was -1.278. Regarding `COc1ccc2nc3cc(Cl)ccc3c(NCCCNCCC(C)SC)c2c1` (stereo not shown) [SJ000361098], the “percent inhibition (TR-FRET)” value under setting [2] is on record as -514.546.

Regarding `Clc1ccc2c(NCCCN(CCc3ccccc3)Cc3ccccc3)ccnc2c1` [SJ000357580], the “percent inhibition (TR-FRET)” value under setting [1] is recorded as 14.4057. Still for that read-out and setting: then `CSC(C)CCNCCCNc1ccnc2cc(Cl)ccc12` (stereo not shown) [SJ000361121], with 13.499. On to `Clc1ccc2c(NCCCCN(Cc3ccccc3)Cc3nccs3)ccnc2c1` [SJ000520448], for which the “percent inhibition (TR-FRET)” value under setting [2] is -1.698. On to `CCCN(CCC)CCCNc1c2ccc(Cl)cc2nc2ccc(OC)cc12` [SJ000520917], for which the “percent inhibition (TR-FRET)” value under setting [2] is recorded as -288.202.

As to `CCOc1ccc2ncc(S(=O)(=O)c3ccc(Cl)cc3)c(N3CCN(c4ccccc4)CC3)c2c1` [SJ000117054], the “percent inhibition (TR-FRET)” value (single point TR-FRET screening of quinoline compounds against MAGE-A11:PCF11) was -446.911. For `CSC(C)CCNCCCNc1ccnc2cc(C(F)(F)F)ccc12` (stereo not shown) [SJ000361125], the “percent inhibition (TR-FRET)” value under setting [1] stood at 24.4617. Still for that read-out and setting: then `Clc1ccc2c(NCCCN(Cc3ccccc3)Cc3cccc4c3OCO4)ccnc2c1` [SJ000357598], with 3.49. Take `CN(C)c1cc(NC(=O)CN2CCOCC2)c2ccccc2n1` [SJ000111677]: the “percent inhibition (TR-FRET)” value under setting [2] is recorded as 4.988. On to `CC(C)CN(CCCCNc1ccnc2cc(Cl)ccc12)Cc1ccccc1` [SJ000357470], for which the “percent inhibition (TR-FRET)” value under setting [2] worked out at 25.4682. The same measure, in the same setting: the figure for `O=[N+]([O-])c1cccc(CN2CCC(Nc3ccnc4cc(Cl)ccc34)CC2)c1` [SJ000523095] is 0.8927; for `CCOC(=O)c1cnc2ccc(OC)cc2c1N1CCN(C)CC1` [SJ000279507] it is -2.791. The same measure, in the same setting: the figure for `C=CCOCC(O)CN1CCN(c2cc(C(F)(F)F)nc3ccccc23)CC1` (stereo not shown) [SJ000228017] is -2.128.

Regarding `Clc1ccc2c(NCCCNCc3cc(Br)cs3)ccnc2c1` [SJ000521028], the “percent inhibition (TR-FRET)” value under setting [1] is 22.1075. In the case of `CCCN(CCCNc1ccnc2cc(Cl)ccc12)CC(C)C` [SJ000357568], the “percent inhibition (TR-FRET)” value under setting [1] is listed as 11.4525. As for `CCCN(CCCNc1c2ccc(Cl)cc2nc2ccc(OC)cc12)CCC(C)c1ccccc1` (stereo not shown) [SJ000522731], the “percent inhibition (TR-FRET)” value under setting [2] was -120.975. The same measure, in the same setting: the figure for `Fc1cccc(C(F)(F)F)c1CN(CCCCNc1ccnc2cc(Cl)ccc12)Cc1ccccc1` [SJ000520465] is 28.7514; for `Clc1ccc2c(NCCCCN(Cc3ccccc3)Cc3ccc4c(c3)OCO4)ccnc2c1` [SJ000522723] it is 16.5062. For `COc1ccc(F)cc1CN(CCCNc1ccnc2cc(Cl)ccc12)Cc1ccccc1` [SJ000357495], the “percent inhibition (TR-FRET)” value under setting [1] is on record as 6.683. Turning to `CCCN(CCCNc1ccnc2cc(Cl)ccc12)Cc1cc(F)ccc1OC` [SJ000357494], under setting [1], the “percent inhibition (TR-FRET)” value was determined as 17.0835.
